Results on 8 compounds are retold here after PubChem BioAssay (NCI).

Holding throughout (test): NCI tumour cell line growth inhibition, 48 h
Test [1] deals with SK-MEL-5 melanoma.
The test system of test [2] is SR leukemia.
In test [3] the test system is SK-MEL-2 melanoma.
Test [4] has as its system PC-3 prostate.
Test [5] has as its system SN12C renal.
The subject of test [6] is HS 578T breast.
Test [7] deals with SK-MEL-28 melanoma.
Test [8] deals with 786-0 renal.
Test [9] concerns OVCAR-8 ovarian.
Test [10] relates to NCI-H522 lung.

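Test compounds were applied to cells in 96-well plates for 48 hours at 5 doses. GI50: concentration for 50% inhibition of growth. At the TGI there is no net growth.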

Turning to `CCN(CC)CCNCC(=O)Oc1ccc(/C=C/C(=O)CC(=O)/C=C/c2ccc(OC(=O)CNCCN(CC)CC)c(OC)c2)cc1OC`, the GI50 in test [1] was 2.57 µM; in [2] it was 3.14 µM; in test [3] it was 3.39 µM; in test [4] it was 4.69 µM; in test [5], 3.32 µM; in test [6], 3.59 µM. Also, the GI50 was 4.16 µM in test [7], 2.38 µM in test [8], 3.69 µM in test [9] and 3.29 µM in [10]. Also, the TGI in test [1] was 9.65 µM; in [2], greater than 100 µM; in test [3], 12.7 µM; in test [4], greater than 100 µM; in [5] it was 79.6 µM; in test [6], 26.4 µM. For the same compound, the TGI in test [7] was determined as 46.2 µM; in test [8], 5.93 µM; in [9], 15 µM; in [10], 11.6 µM.
As for `O=C(CN(C1CCCCC1)C1CCCCC1)Nc1ccc(S(=O)(=O)c2ccc(NC(=O)CN(C3CCCCC3)C3CCCCC3)cc2)cc1`, the GI50 in [1] is 0.395 µM; in test [2], 0.224 µM; in test [3], 1.35 µM; in [4] it was 0.985 µM; in [5] it was 1.33 µM; in [6] it was 1.03 µM. Moreover, the GI50 in test [7] is 1.21 µM; in test [8], 0.941 µM; in [9] it was 0.701 µM; in test [10], 0.394 µM. Besides, the TGI in [1] stood at 1.65 µM; in test [2], 1.52 µM; in test [3] it was 3.5 µM; in test [4], 2.35 µM; in test [5], 2.73 µM; in test [6], 6.9 µM. For the same compound, the TGI in test [7] stood at 2.82 µM; in test [8], 2.39 µM; in [9] it was 3.71 µM; in test [10] it was 1.24 µM.
For the compound `Nc1nc(Nc2ccccc2)c2ncn(Cc3cc4c(cc3Br)OCO4)c2n1`, the GI50 in [1] is 0.0485 µM; in test [2], 0.0371 µM; in test [3], 0.0546 µM; in [4] it was 0.0801 µM; in [5], 0.407 µM; in [6], 0.075 µM. Besides, the GI50 in test [7] is 0.524 µM; in test [8], 0.0659 µM; in test [9], 0.17 µM; in test [10], 0.0316 µM. Further, the TGI is 0.278 µM in test [1]; greater than 100 µM in [2]; 42.3 µM in test [3]; 46.9 µM in test [4]; greater than 100 µM in test [5]; greater than 94.9 µM in [6]. The TGI in [7] came out at 36.2 µM; in [8], 16.2 µM; in [9], 0.832 µM; in [10], 0.207 µM.
With `O=C(Nc1cccc(Cl)c1Cl)c1cccc(NC2=C(Cl)C(=O)N(Cc3ccccc3)C2=O)c1`, the GI50 in [1] was 20.1 µM; in test [2], 4.16 µM; in test [3], 16.9 µM; in test [4], 26.9 µM; in test [5] it was 30.2 µM; in [6], 28.7 µM. Moreover, the GI50 in [7] is greater than 100 µM; in test [8], 49.8 µM; in [9] it was 9.47 µM; in test [10], 12.6 µM. Further, the TGI was greater than 100 µM in [1]; 23.5 µM in test [2]; 58.6 µM in test [3]; 97.4 µM in test [4]; greater than 100 µM in test [5]; greater than 100 µM in [6]. Also, the TGI in test [7] was greater than 100 µM; in test [8], greater than 100 µM; in test [9], 42 µM; in test [10] it was 54.7 µM.
On to `Cc1c[n+](Cc2ccc3ccccc3c2)cn1Cc1ccc2ccccc2c1`, for which the GI50 in test [1] is 0.688 µM; in [2], 1.46 µM; in test [3], 1.85 µM; in [4], 1.27 µM; in test [5], 1.67 µM; in test [6], 2.22 µM. For the same compound, the GI50 in test [7] was 1.8 µM; in [8], 1.71 µM; in [9] it was 1.89 µM; in [10], 1.41 µM. In addition, the TGI in test [1] was 1.94 µM; in [2], 3.58 µM; in [3] it was 3.68 µM; in [4] it was 2.84 µM; in test [5], 3.33 µM; in [6], 6.65 µM. Besides, the TGI in [7] was found to be 3.7 µM; in [8], 3.63 µM; in test [9], 4.01 µM; in test [10] it was 3.05 µM.
Consider `CC(C)c1ccccc1S(=O)c1ccccc1C(C)(C)O` (stereo not given), for which the TGI in [1] was 81.5 µM; in test [2] it was greater than 100 µM; in test [3], greater than 100 µM; in test [4], greater than 100 µM; in [5] it was greater than 100 µM; in [6] it was greater than 100 µM. The TGI in [7], in [8], in test [9] and in [10] was greater than 100 µM throughout.
In the case of `COc1ccc(/C=c2/sc3n(c2=O)C(c2ccc(OC)c(OC)c2)C2=C(N=3)c3cc(F)ccc3OC2)cc1` (stereo not given), the GI50 in [1] is 22.3 µM; in test [2], 60.9 µM; in test [3], greater than 45.2 µM; in test [4], 17.6 µM; in test [5] it was 3.45 µM; in test [6], 27 µM. Besides, the GI50 was 51.5 µM in test [7], 42.1 µM in test [8], 40.2 µM in test [9] and 51.8 µM in test [10]. For the same compound, the TGI in [1] is greater than 62.4 µM; in test [2], greater than 100 µM; in test [3], greater than 92.4 µM; in test [4], greater than 100 µM; in [5], greater than 54.9 µM; in [6], greater than 87.5 µM. The TGI was greater than 96.6 µM in test [7], greater than 100 µM in test [8], greater than 100 µM in test [9] and greater than 100 µM in test [10].
Regarding `O=C(O)c1c(-c2nccc3ccccc23)[nH]c(-c2ccccc2)c1S(=O)(=O)O`, the TGI in test [1], in [2], in test [3], in test [4], in test [5] and in test [6] was greater than 100 µM each time. For the same compound, the TGI in test [7], in [8], in [9] and in [10] was greater than 100 µM in each case.
